From patent publication US5580552A, “7-glycosyloxybenzopyran derivative and antiallergic agent containing the derivative as active ingredient” (priority 1994, dated 1996)

How the values were obtained:
[1] = system: homologous passive cutaneous anaphylaxis (PCA) reaction; assay: Effect on homologous passive cutaneous anaphylaxis (PCA) reaction in rats; assay type: in vivo, rats (male wistar); conditions: Rattus norvegicus, po, 0.5 h, 50 mg/kg oral, 1 hour before challenge (TABLE 2)
Procedure: Effect on homologous passive cutaneous anaphylaxis (PCA) reaction in rats.
This experimental animal model is caused by immediate type allergic reaction namely, antigen-antibody reaction. In the following, the method of this pharmacological test will be explained.
Method: Male wistar rats (9 weeks old) were intradermally administered 0.05 ml of anti-serum against dinitrophenylated ascaris (DNP-As) into two sites on the shaved dorsal skin. 48 hours later, 7-glycosyloxybenzopyran derivatives (test compounds) suspended in 0.5% sodium carboxymethylcellulose (CMCNa) were given orally at a dose of 50 mg/kg to the animals. One hour after administration of Test compounds, the animals were induced anaphylaxis by injection of saline (1 ml) dissolving 5 mg of Evans Blue and 1 mg of Trinitrophenylated ascaris (TNP-As) into the tail vein of the animals. 30 minutes after induction of anaphylaxis, animals were anesthetized by ether and killed by bleeding, and were flayed dorsal skin. The determination of extravasated dye was performed according to the method of Katayama et al. (Microbiol. Immunol., Vol.22, P 89-101, 1978). As vehicle control group, only 0.5% CMCNa solution was administered orally, and as positive control group, Tranilast suspended in 0.5% CMCNa was administered orally at a dose of 100 mg/kg to the animals with the same method as the test compounds groups. Each experimental group consisted of 5 rats. [formula]

[2] = system: contact dermatitis induced by picryl chloride; assay: Effect on contact dermatitis induced by picryl chloride in mice; assay type: in vivo; conditions: Mus musculus, po, 24 h, 50 mg/kg oral, 1 hour before and 16 hours after challenge; 24 hours after challenge; read-out: Inhibition (%) against the increase of ear thickness
Procedure: Effect on contact dermatitis induced by picryl chloride in mice
The delayed type hypersensitization is inhibited by steroid drugs,but can not be effected by known anti-allergic agents. In the following, the method of the pharmacological test will be explained.
Method: Mice, shaved their abdominal skin on previous day, were immunized by applying 0.1 ml of acetone containing 7 mg of picryl chloride to the skin of the abdomen. 7 days after immunization, the thickness of the ear was measured with a dial thickness gauge, then mice were challenged by painting 5 μl of 1% picryl chloride olive oil solution to each side skin of left ear. 24 hours after challenge, the thickness of the left ear was measured again and the increase (%) of thickness was calculated according to equation 2. The compounds of the present invention (test compounds) suspended in 0.5% CMCNa were forcibly administered orally at a dose of 50 mg/kg at 1 hour before and 16 hours after challenge. As vehicle control group, only 0.5% CMCNa solution were administered orally, and as positive control group, Prednisolone, steroid hormone, and Tranilast were administered orally at the doses of 10 mg/kg and 100 mg/kg, respectively.
Increase (%)=(A-B)/B×100 (Equation 2)
A: thickness of the ear at 24 hours after challenge
B: thickness of the ear before challenge
Inhibition (%)=(C-D)/C×100 (equation 3)
C: The increase (%) in vehicle control group
D: The increase (%) in test compounds group or positive control group

[3] = system: experimental asthma model (airway resistance); assay: Effect on experimental asthma model in guinea pigs (airway resistance); assay type: in vivo, guinea pigs (male hartley); conditions: Cavia porcellus, po, 0.5 h, 50 mg/kg oral (TABLE 6)
Procedure: Effect on experimental asthma model in guinea pigs
The asthma is typical allergic disease and we carried out this pharmacological test by well known experimental asthma model in guinea pigs in order to comfirm that the compounds of the present invention suppress the asthma. In the following, the method of the pharmacological test will be explained.
Method: Male hartley guinea pigs were immunized by intraperitoneal injection of saline (1ml) containing 5 mg of ovalbumine (OVA) three times at interval of one week. 2 weeks after final immunization, the animals were challenged by inhalation of 1% OVA-saline solution for 1 minute and then the airway resistance of the animals were measured for 30 minutes with PULMOS-1 (Medical Interface Project Station Inc.) after the inhalation. The compounds of the present invention (test compounds) suspended in 0.5% CMCNa were given orally at a dose of 50 mg/kg. As positive control group, Disodium Cromoglicate (DSCG), well known anti-allergic agent, in saline were injected at a dose of 20 mg/kg into the vein of the animals. As vehicle control group, only 0.5% CMCNa solution were given orally. The inhibition (%) of the airway resistance in vehicle control group was calculated according to equation 5 and the result was shown in TABLE 6. Each experimental group consisted of 5 guinea pigs. [formula]
A: Maximum airway resistance in vehicle control group
B: Maximum airway resistance in test compounds group or positive control group

| SMILES | inhibition in vivo at 50 mg/kg [1] | inhibition in vivo at 50 mg/kg [2] | inhibition in vivo at 50 mg/kg [3] |
| --- | --- | --- | --- |
| C=COc1c(O)c2ccc(O[C@@H]3O[C@H](CO)[C@@H](O)[C@H](O)[C@H]3O)cc2oc1=O [compound 44] | 54.5% | 56.3% | 65.1% |
| CCC=CCCOc1c(O)c2ccc(O[C@@H]3O[C@H](CO)[C@@H](O)[C@H](O)[C@H]3O)cc2oc1=O [compound 45] | 55.2% | 54.2% | 62.3% |
| CC(C)=CCC/C(C)=C/COc1c(O)c2ccc(O[C@@H]3O[C@H](CO)[C@@H](O)[C@H](O)[C@H]3O)cc2oc1=O [compound 46] | 54.3% | 57.6% | 63.4% |
| O=c1oc2cc(O[C@@H]3O[C@H](CO)[C@@H](O)[C@H](O)[C@H]3O)ccc2c(O)c1OCc1ccccc1 [compound 47] | 52.1% | 51.9% | 59.1% |
| O=c1oc2cc(O[C@H]3O[C@H](CO)[C@@H](O)[C@H](O)[C@@H]3O)ccc2c(O)c1O [compound 61] | 40.2% | 43.1% | 45.2% |
| CCCCOc1c(O)c2ccc(O[C@H]3O[C@H](CO)[C@@H](O)[C@H](O)[C@@H]3O)cc2oc1=O [compound 62] | 53.2% | 49.3% | 50.1% |
| CCCCCCOc1c(O)c2ccc(O[C@H]3O[C@H](CO)[C@@H](O)[C@H](O)[C@@H]3O)cc2oc1=O [compound 63] | 55.7% | 53.1% | 53.2% |
| CCCCCCCCOc1c(O)c2ccc(O[C@H]3O[C@H](CO)[C@@H](O)[C@H](O)[C@@H]3O)cc2oc1=O [compound 64] | 54.9% | 52.6% | 57.2% |
| CCCCCCCCCCOc1c(O)c2ccc(O[C@H]3O[C@H](CO)[C@@H](O)[C@H](O)[C@@H]3O)cc2oc1=O [compound 65] | 52.1% | 50.3% | 49.3% |
| CCCCCCCCCCCCOc1c(O)c2ccc(O[C@H]3O[C@H](CO)[C@@H](O)[C@H](O)[C@@H]3O)cc2oc1=O [compound 66] | 49.3% | 51.4% | 54.3% |
| CC(C)Oc1c(O)c2ccc(O[C@H]3O[C@H](CO)[C@@H](O)[C@H](O)[C@@H]3O)cc2oc1=O [compound 67] | 50.4% | 53.2% | 60.2% |
| CC1CCC(Oc2c(O)c3ccc(O[C@H]4O[C@H](CO)[C@@H](O)[C@H](O)[C@@H]4O)cc3oc2=O)CC1 (stereo partly drawn) [compound 68] | 49.5% | 47.3% | 63.5% |
| C=COc1c(O)c2ccc(O[C@H]3O[C@H](CO)[C@@H](O)[C@H](O)[C@@H]3O)cc2oc1=O [compound 69] | 48.1% | 49.9% | 59.3% |
| CCC=CCCOc1c(O)c2ccc(O[C@H]3O[C@H](CO)[C@@H](O)[C@H](O)[C@@H]3O)cc2oc1=O [compound 70] | 51.3% | 52.1% | 65.6% |
| CC(C)=CCC/C(C)=C/COc1c(O)c2ccc(O[C@H]3O[C@H](CO)[C@@H](O)[C@H](O)[C@@H]3O)cc2oc1=O [compound 71] | 49.8% | 47.4% | 63.2% |
| O=c1oc2cc(O[C@H]3O[C@H](CO)[C@@H](O)[C@H](O)[C@@H]3O)ccc2c(O)c1OCc1ccccc1 [compound 72] | 45.2% | 42.3% | 52.1% |
| CCCCCCOc1c(OCc2ccccc2)c2ccc(O[C@@H]3O[C@H](COC(C)=O)[C@H](OC(C)=O)[C@H](OC(C)=O)[C@H]3OC(C)=O)cc2oc1=O [compound 75] | 45.5% | 40.3% | 43.5% |
| CCCCOc1c(O)c2ccc(O[C@@H]3O[C@H](CO)[C@H](O)[C@H](O)[C@H]3O)cc2oc1=O [compound 86] | 56.4% | 59.4% | 73.2% |
| CCCCCCOc1c(O)c2ccc(O[C@@H]3O[C@H](CO)[C@H](O)[C@H](O)[C@H]3O)cc2oc1=O [compound 87] | 60.3% | 64.9% | 79.5% |
| CCCCCCCCOc1c(O)c2ccc(O[C@@H]3O[C@H](CO)[C@H](O)[C@H](O)[C@H]3O)cc2oc1=O [compound 88] | 61.5% | 66.8% | 80.2% |
| CCCCCCCCCCOc1c(O)c2ccc(O[C@@H]3O[C@H](CO)[C@H](O)[C@H](O)[C@H]3O)cc2oc1=O [compound 89] | 57.8% | 62.3% | 77.3% |
| CCCCCCCCCCCCOc1c(O)c2ccc(O[C@@H]3O[C@H](CO)[C@H](O)[C@H](O)[C@H]3O)cc2oc1=O [compound 90] | 54.3% | 60.1% | 72.1% |
| CC(C)Oc1c(O)c2ccc(O[C@@H]3O[C@H](CO)[C@H](O)[C@H](O)[C@H]3O)cc2oc1=O [compound 91] | 55.5% | 59.3% | 69.5% |
| CC1CCC(Oc2c(O)c3ccc(O[C@@H]4O[C@H](CO)[C@H](O)[C@H](O)[C@H]4O)cc3oc2=O)CC1 (stereo partly drawn) [compound 92] | 58.9% | 57.2% | 65.2% |
| C=COc1c(O)c2ccc(O[C@@H]3O[C@H](CO)[C@H](O)[C@H](O)[C@H]3O)cc2oc1=O [compound 93] | 55.2% | 56.4% | 69.7% |
| CCC=CCCOc1c(O)c2ccc(O[C@@H]3O[C@H](CO)[C@H](O)[C@H](O)[C@H]3O)cc2oc1=O [compound 94] | 53.7% | 51.2% | 73.2% |
| CC(C)=CCC/C(C)=C/COc1c(O)c2ccc(O[C@@H]3O[C@H](CO)[C@H](O)[C@H](O)[C@H]3O)cc2oc1=O [compound 95] | 54.2% | 55.8% | 63.2% |
| O=c1oc2cc(O[C@@H]3O[C@H](CO)[C@H](O)[C@H](O)[C@H]3O)ccc2c(O)c1OCc1ccccc1 [compound 96] | 50.1% | 48.9% | 58.2% |
| CCCCOc1c(OC(=O)CC)c(=O)oc2cc(O[C@@H]3O[C@H](COC(C)=O)[C@@H](OC(C)=O)[C@H](OC(C)=O)[C@H]3OC(C)=O)ccc12 [compound 99] | 40.2% | 40.3% | 39.2% |
| O=c1oc2cc(O[C@@H]3O[C@H](CO)[C@@H](O)[C@H](O)[C@H]3O)ccc2c(O)c1O [compound 108] | 45.3% | 42.4% | 50.1% |
